Like-named read-outs stand apart in the source and are kept apart here. Some results are limits rather than exact numbers.

As usually defined, the IC50 is the point on the concentration scale where inhibition reaches its midpoint.

The subject of experiment [1] is Lp(a) production in HepG2^K17 cells. As to the kind of experiment: LPA3 screen: inhibition of Lp(a) production in transfected HepG2 cells, Lp(a) in media by ELISA. In kind it is cell-based. The following applies: 8 hours, 0.3 to 50 μM compound, Lp(a) normalized for total protein, read-out: Lp A3 IC50. On the procedure: The LPA3 screen is used to identify compounds that inhibit Lp(a) production. This screen employs permanently transfected HepG2 cells (HepG2^K17) that are generated using an apo(a) 17-kringle cDNA expression construct (pcDNA-AMP, In Vitrogen, Carlsbad, Calif.) in accordance with methods that are well-known in molecular biology.
HepG2^K17 cells are seeded in 96-well plates at a density of 75,000 cells per well in 0.25 mL of Dulbecco's Modified Eagle Media (DMEM) containing 10% fetal bovine serum (FBS). Seeded plates are incubated overnight in a 37° C., 5% CO2/95% 02 incubator. The media is removed, replaced with (1) fresh media, or (2) fresh media plus 0.3 to 50 μM of a compound of the present invention in 20 μL of PBS, and the plates returned to the incubator for 8 hours. After the additional 8 hours of incubation, Lp(a) is assayed in the media by ELISA. Cells are digested with 0.5N NaOH overnight and assayed for total protein. Lp(a) values are normalized for total protein content.
On the technique in general: In an ELISA, binding on a coated surface is turned into a signal by an enzyme label.

In experiment [2] the target is apolipoprotein(a), [apo(a)], apolipoproteinB-100, [apoB-100], coupling reaction that generates Lp(a) (Homo sapiens, UniProt P04114+P08519). The experiment can be described thus: LPABC screen: lipoprotein(a) biochemical coupling assay, Lp(a) content by ELISA. The settings on record: recombinant apo(a) 17-kringle (293 cell media) + HepG2 conditioned media, 67 minutes, 37° C., 0.3 to 50 μM compound; read-out: Lp ABC IC50. Here is the method:
LPABC Screen The lipoprotein(a), [Lp(a)], biochemical coupling assay (LPABC) is used to characterize inhibitors of the apolipoprotein(a), [apo(a)], apolipoproteinB-100, [apoB-100], coupling reaction that generates Lp(a). Conditioned media from 293 cells (ATCC CRL-1573), permanently transfected with an apo(a) 17-kringle cDNA expression construct (pcDNA-AMP, In Vitrogen, Carlsbad, Calif.) using standard molecular biology techniques, was used as a source of recombinant apo(a) is diluted 1:3 with phosphate buffered saline (PBS) and 90 μL is pipetted into each well of a 96-well plate and placed into a 37° C. incubator for 10 minutes. Twenty microliters of a 0.3 to 50 μM solution of a compound of the present invention in PBS is added to the warmed plate. Ninety microliters of HepG2 (ATCC HB-8065) cell conditioned media diluted 1:3 with PBS is added to the apo(a)/compound mixture and mixed by pipetting up and down 5 times. The reaction is incubated for 67 minutes in a 37° C. incubator. A 100 μL aliquot of the reaction is removed and assayed for its Lp(a) content by an enzyme linked immunosorbent assay (ELISA).

Take `CCOc1ccccc1C(=O)N(Cc1ccc2c(c1)C(C)(C)CCC2(C)C)c1cccnc1` [Example 73, 2-Ethoxy-N-pyridin-3-yl-N-(5,5,8,8-tetramethyl-5,6,7,8-tetrahydro-naphthalen-2-ylmethyl)-benzamide]: the results for the IC50 in experiment [1] (Homo sapiens) and in experiment [2] were 10 µM and more than 50 µM, respectively.

Turning to `CCCSc1ccccc1C(=O)N(Cc1ccccc1-c1ccccc1)c1cccc(OC)c1` [Example 128, N-Biphenyl-2-ylmethyl-N-(3-methoxy-phenyl)-2-propylsulfanyl-benzamide], the IC50 is 46.8 µM in experiment [1] (Homo sapiens) and more than 50 µM in experiment [2].

Consider `COc1ccc(N(Cc2ccccc2-c2ccccc2)C(=O)c2ccc3c(c2)OCO3)cc1` [Example 105, Benzo[1,3]dioxole-5-carboxylic acid biphenyl-2-ylmethyl-(4-methoxy-phenyl)-amide], for which the values for the IC50 in experiment [1] (Homo sapiens) and in experiment [2] were 13.4 µM and more than 50 µM, respectively.

On to `O=C(c1ccccc1OCc1ccccc1)N(Cc1cccnc1)Cc1ccccc1-c1ccccc1` [Example 101, 2-Benzyloxy-N-biphenyl-2-ylmethyl-N-pyridin-3-ylmethyl-benzamide], for which the IC50 is 10.8 µM in experiment [1] (Homo sapiens) and more than 50 µM in experiment [2].

Regarding `COc1ccc(N(Cc2ccccc2-c2ccccc2)C(=O)c2ccccc2SC(C)C)cc1` [Example 127, N-Biphenyl-2-ylmethyl-2-isopropylsulfanyl-N-(4-methoxy-phenyl)-benzamide], the IC50 in experiment [1] (Homo sapiens) is 49.4 µM; in experiment [2], more than 50 µM.

Take `O=C(c1cccc2c1OCO2)N(Cc1ccccc1-c1ccccc1)c1ccncc1` [Example 120, Benzo[1,3]dioxole-4-carboxylic acid biphenyl-2-ylmethyl-pyridin-4-yl-amide]: the IC50 in experiment [1] (Homo sapiens) was 18.1 µM; in experiment [2], more than 50 µM.

As to `O=C(c1cccc2c1OCO2)N(Cc1cccnc1)Cc1ccccc1-c1ccccc1` [Example 97, Benzo[1,3]dioxole-4-carboxylic acid biphenyl-2-ylmethyl-pyridin-3-ylmethyl-amide], the IC50 in experiment [1] (Homo sapiens) is 7.8 µM; in experiment [2], more than 50 µM.

For the molecule `COc1ccc(N(Cc2ccccc2-c2ccccc2)C(=O)c2ccc(OC)cc2OC)cc1` [Example 106, N-Biphenyl-2-ylmethyl-2,4-dimethoxy-N-(4-methoxy-phenyl)-benzamide], the IC50 was 9.3 µM in experiment [1] (Homo sapiens) and more than 50 µM in experiment [2].

As for `CCN(CC)CCCc1ccc(N(Cc2ccc(Cl)c(Cl)c2)C(=O)c2ccccc2)cc1` [Example 56, N-(3,4-Dichloro-benzyl)-N-[4-(3-diethylamino-propyl)-phenyl]-benzamide], the results for the IC50 in experiment [1] (Homo sapiens) and in experiment [2] were 11 µM and more than 50 µM, respectively.

In the case of `COc1ccc(N(Cc2ccccc2-c2ccccc2)C(=O)c2ccccc2[S+]([O-])C(C)C)cc1` (centres unmarked) [Example 139, N-Biphenyl-2-ylmethyl-N-(4-methoxy-phenyl)-2-(propane-2-sulfinyl)-benzamide], the IC50 is 3.5 µM in experiment [1] (Homo sapiens) and more than 15 µM in experiment [2].

Regarding `COc1cccc(N(Cc2ccccc2-c2ccccc2)C(=O)c2ccccc2SC(C)C)c1` [Example 130, N-Biphenyl-2-ylmethyl-2-isopropylsulfanyl-N-(3-methoxy-phenyl)-benzamide], the IC50 in experiment [1] (Homo sapiens) is 31.4 µM; in experiment [2], more than 50 µM.

As to `O=C(c1ccccc1[N+](=O)[O-])N(Cc1cccnc1)Cc1ccccc1-c1ccccc1` [Example 100, N-Biphenyl-2-ylmethyl-2-nitro-N-pyridin-3-ylmethyl-benzamide], the results for the IC50 in experiment [1] (Homo sapiens) and in experiment [2] were 45.8 µM and more than 50 µM, respectively.

For the molecule `COc1ccc(N(Cc2ccccc2-c2ccccc2)C(=O)c2ccccc2SC(C)C)cc1OC` [Example 135, N-Biphenyl-2-ylmethyl-N-(3,4-dimethoxy-phenyl)-2-isopropylsulfanyl-benzamide], the IC50 in experiment [1] (Homo sapiens) is 21.9 µM; in experiment [2] it was more than 50 µM.

As to `COc1ccc(N(Cc2ccccc2-c2ccccc2)C(=O)c2cccc(Sc3ccccc3)c2)cc1OC` [Example 136, N-Biphenyl-2-ylmethyl-N-(3,4-dimethoxy-phenyl)-3-phenylsulfanyl-benzamide], the concentration for half-maximal inhibition (IC50) in experiment [1] (Homo sapiens) is 33.8 µM; in experiment [2], more than 50 µM.

`CCN(CC)CCCc1ccc(N(Cc2cc(C(C)(C)C)cc(C(C)(C)C)c2)C(=O)c2ccccc2)cc1` [Example 51, N-(3,5-Di-tert-butyl-benzyl)-N-[4-(3-diethylamino-propyl)-phenyl]-benzamide]: the IC50 is 24.5 µM in experiment [1] (Homo sapiens) and more than 50 µM in experiment [2].

With `COc1cccc(CN(C(=O)c2ccccc2)c2ccccc2)c1` [Example 61, N-(3-Methoxy-benzyl)-N-phenyl-benzamide], the IC50 in experiment [1] (Homo sapiens) is 47.1 µM; in experiment [2], more than 50 µM.

On to `CCN(CC)CCCc1ccc(N(Cc2ccc3ccccc3c2)C(=O)c2ccccc2)cc1` [Example 57, N-[4-(3-Diethylamino-propyl)-phenyl]-N-naphthalen-2-ylmethyl-benzamide], for which the IC50 is 11.4 µM in experiment [1] (Homo sapiens) and more than 50 µM in experiment [2].

Consider `COc1cccc(CN(C(=O)c2ccc(OC)c(OC)c2)c2ccccc2)c1` [Example 45, 3,4-Dimethoxy-N-(3-methoxy-benzyl)-N-phenyl-benzamide], for which the figures for the IC50 in experiment [1] (Homo sapiens) and in experiment [2] were 52.1 µM and more than 50 µM, respectively.

Regarding `CCC[S+]([O-])c1ccccc1C(=O)N(Cc1ccccc1-c1ccccc1)c1ccc(OC)cc1` (centres unmarked) [Example 138, N-Biphenyl-2-ylmethyl-N-(4-methoxy-phenyl)-2-(propane-1-sulfinyl)-benzamide], the figures for the IC50 in experiment [1] (Homo sapiens) and in experiment [2] were 7 µM and more than 15 µM, respectively.

`CCOc1ccccc1C(=O)N(Cc1ccccc1-c1ccccc1)c1cccnc1` [Example 81, N-Biphenyl-2-ylmethyl-2-ethoxy-N-pyridin-3-yl-benzamide]: the IC50 is 0.9 µM in experiment [1] (Homo sapiens) and more than 50 µM in experiment [2].

On to `CCOc1ccc(C(=O)N(Cc2ccccc2-c2ccccc2)c2ccncc2)cc1` [Example 124, N-Biphenyl-2-ylmethyl-4-ethoxy-N-pyridin-4-yl-benzamide], for which the IC50 in experiment [1] (Homo sapiens) was 3.3 µM; in experiment [2], more than 50 µM.

`COc1cc(C(=O)N(Cc2ccc(C(C)(C)C)cc2)c2cnc3ccccc3c2)cc(OC)c1OC` [Example 63, N-(4-tert-Butyl-benzyl)-3,4,5-trimethoxy-N-quinolin-3-yl-benzamide]: the IC50 in experiment [1] (Homo sapiens) is 25.1 µM; in experiment [2], more than 50 µM.

Take `COc1cccc(CN(C(=O)c2ccc(C(C)C)cc2)c2cccnc2)c1` [Example 69, 4-Isopropyl-N-(3-methoxy-benzyl)-N-pyridin-3-yl-benzamide]: the IC50 in experiment [1] (Homo sapiens) is 18.8 µM; in experiment [2], more than 50 µM.

Take `CCN(CC)CCCc1ccc(N(Cc2cc(Br)cc(Br)c2)C(=O)c2ccccc2)cc1` [Example 53, N-(3,5-Dibromo-benzyl)-N-[4-(3-diethylamino-propyl)-phenyl]-benzamide]: the IC50 in experiment [1] (Homo sapiens) was 14.6 µM; in experiment [2], more than 50 µM.

In the case of `CC(C)c1ccc(C(=O)N(Cc2ccc(C(C)(C)C)cc2)c2cccnc2)cc1` [Example 71, N-(4-tert-Butyl-benzyl)-4-isopropyl-N-pyridin-3-yl-benzamide], the IC50 in experiment [1] (Homo sapiens) was 43 µM; in experiment [2], more than 50 µM.

Consider `O=C(c1ccccc1[S+]([O-])c1ccccc1)N(Cc1ccccc1-c1ccccc1)c1ccc(Cl)cc1` (centres unmarked) [Example 140, 2-Benzenesulfinyl-N-biphenyl-2-ylmethyl-N-(4-chloro-phenyl)-benzamide], for which the IC50 in experiment [1] (Homo sapiens) is 24.9 µM; in experiment [2] it was more than 15 µM.

Turning to `O=C(c1ccccc1SCc1ccccc1)N(Cc1ccccc1-c1ccccc1)c1ccc(Cl)cc1` [Example 132, 2-Benzylsulfanyl-N-biphenyl-2-ylmethyl-N-(4-chloro-phenyl)-benzamide], the IC50 in experiment [1] (Homo sapiens) is more than 74 µM; in experiment [2] it was more than 50 µM.

Consider `COc1ccccc1N(Cc1ccccc1-c1ccccc1)C(=O)c1ccccc1` [Example 88, N-Biphenyl-2-ylmethyl-N-(2-methoxy-phenyl)-benzamide], for which the IC50 in experiment [1] (Homo sapiens) was 16.5 µM; in experiment [2], more than 50 µM.

On to `COc1ccc(N(Cc2ccccc2-c2ccccc2)C(=O)c2ccccc2[N+](=O)[O-])cn1` [Example 94, N-Biphenyl-2-ylmethyl-N-(6-methoxy-pyridin-3-yl)-2-nitro-benzamide], for which the IC50 was 24.8 µM in experiment [1] (Homo sapiens) and more than 50 µM in experiment [2].

Regarding “N-Biphenyl-2-ylmethyl-N-(3,4-dimethoxy-phenyl)-2-phenylmethanesulfinyl- [Example 143]”, the IC50 in experiment [1] amounted to 1.6 µM.

The values are drawn from US6780883B2, “Amide inhibitors of microsomal triglyceride transfer protein” (Warner-Lambert Company, priority 1998, dated 2004).
